We go through one compound from patent publication US20220054398A1, “USE OF RUBUS FRUTICOSUS EXTRACT FOR MANUFACTURING A SKINCARE COMPOSITION” (TCI CO., LTD., priority 2020, published 2022).

In this test the test system is Mouse melanoma cell B16F10. Briefly: Melanin production after blue light exposure, OD450. In kind it is cell-based. Conditions: B16F10 cells, 0.25 mg/mL 24 hours, blue light 3 hours, then 48 hours. Here is the method:
The changes in melanin content of melanoma cell line B16F10 after being treated with Rubus fruticosus extract are determined by an ELISA reader (enzyme-linked immunosorbent assay reader). Materials and Instruments: • 1. Cell line: Mouse melanoma cell B16F10, purchased from American Type Culture Collection (ATCC®, No. 6475), hereinafter referred to as B16F10 cells. • 2. Medium: Dulbecco's modified […] (DMEM, purchased from Gibco, Cat. 12100-038) is supplemented with additional ingredients to contain 1 vol % antibiotic solution (Antibiotic Antimycotic Solution, purchased from Gibco, 15240-062) and 10 vol % FBS (fetal bovine Serum, purchased from Gibco, 10437-028). Gibco, 15240-062). • 3. Phosphate Buffer Solution (PBS solution): purchased from Gibco, Product No. […]. • 4. Prepare a solution of 1N NaOH (Sigma, Product No. 221465) in secondary distilled water. • 5. ELISA reader (purchased from BioTek, product number FLx 800). • 6. […] Transfer 100 μL of the sample to be tested into a 96-well plate and measure the absorbance value of the cell solution at 450 nm using an ELISA reader. The relative melanin expressions of the experimental and control groups are calculated according to the following formula: Relative melanin expression (%)=(OD 450 value of each group/OD450 value of the control group)×100%.

Consider `O=c1cc(CO)occ1O` [kojic acid, Kojic acid], for which the “melanin production compared with the control group” value was 67.42%.
